Laboratory results published in patent publication US7851501B2, “Aromatic nitrocatechol compounds and their use for modulating processes mediated by cell adhesion molecules” (Revotar Biopharmaceuticals AG, priority 2005, dated 2010).
pIC50: −log10 of the molar value.

What was measured:
[1] = target: T1, human E-Selectin-IgG-chimera (Homo sapiens, UniProt P16581); experiment: Flow chamber assay, cell adhesion and rolling under flow conditions, E-selectin; format: cell-based; settings: 125 μM compound; HL-60 cells; flow shear 1 dyne/cm^2; after 5 minutes continuous flow
T1 sequence (P16581 with tags, fused parts or gaps limits assumed): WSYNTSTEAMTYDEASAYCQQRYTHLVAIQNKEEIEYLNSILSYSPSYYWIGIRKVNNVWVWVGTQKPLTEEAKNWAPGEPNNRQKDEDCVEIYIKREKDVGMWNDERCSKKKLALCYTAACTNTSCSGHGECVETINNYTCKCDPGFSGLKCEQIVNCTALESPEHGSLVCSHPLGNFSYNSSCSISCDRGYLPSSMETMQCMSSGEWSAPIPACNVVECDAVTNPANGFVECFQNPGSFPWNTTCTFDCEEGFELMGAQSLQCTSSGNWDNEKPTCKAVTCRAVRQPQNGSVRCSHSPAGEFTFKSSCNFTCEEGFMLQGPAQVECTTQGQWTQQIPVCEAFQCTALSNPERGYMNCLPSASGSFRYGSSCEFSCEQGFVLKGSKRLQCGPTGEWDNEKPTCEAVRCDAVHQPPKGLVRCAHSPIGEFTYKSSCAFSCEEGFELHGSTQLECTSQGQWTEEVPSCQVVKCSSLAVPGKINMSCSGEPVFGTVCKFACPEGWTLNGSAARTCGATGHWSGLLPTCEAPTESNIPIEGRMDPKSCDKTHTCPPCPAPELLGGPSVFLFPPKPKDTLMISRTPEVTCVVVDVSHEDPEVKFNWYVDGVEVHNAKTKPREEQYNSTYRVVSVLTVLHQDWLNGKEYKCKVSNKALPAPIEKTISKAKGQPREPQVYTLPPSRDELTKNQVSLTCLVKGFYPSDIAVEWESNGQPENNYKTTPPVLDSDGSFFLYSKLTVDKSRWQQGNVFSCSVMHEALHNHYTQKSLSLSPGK
Method: (§1) Values are given as normalized ratios of %-inhibition of compound x divided by %-inhibition of bimosiamose.
(§2) Flow Chamber Assay/Cell Adhesion and Rolling Under Flow Conditions
(§3) To assess the capability of compounds to inhibit cell binding under dynamic conditions resembling the flow in a blood vessel, flow chamber assays addressing/testing binding of HL-60 cells/various cell lines to P-selectin, L-selectin and E-selectin chimeric molecules are performed.
(§4) Cell attachment under flow conditions are determined using a parallel flow chamber system. A 35 mm polystyrene culture dish is coated for 1 hour at room temperature with coating buffer (50 mM tris-(hydroxymethyl)aminomethane buffer (Tris), 150 mM NaCl, 2 mM CaCl2; pH 7.4) containing human E- or P-selectin-IgG chimera at concentrations of 2.5 μg/ml or 10 μg/ml, respectively. After removal of the coating solution non specific binding sites are blocked for an additional hour with 1% BSA in coating buffer at room temperature. After washing with assay buffer (“Roswell Park Memorial Institute 1640” (RPMI 1640)+10 mM HEPES) the dish is fitted into a parallel plate laminar flow chamber (sold from Glycotech, Rockville, Md.) and mounted on an inverted phase-contrast microscope (sold from Olympus, Hamburg, Germany) equipped with a CCD camera (JVC) that is connected to a PC. Employing a peristaltic pump (sold from Ismatec, Wertheim-Mondfeld, Germany) the re-circulating system is equilibrated with assay buffer containing 125 μM compound or vehicle control (DMSO). Cells (1 million/ml) are added to the chamber and allowed to distribute for 2 minutes at a high flow rate. The flow rate is then decreased resulting in a calculated flow shear of 1 dyne/cm^2. Video sequences of 10 low power fields are digitally recorded after 5 minutes continuous flow. The percentage of inhibition is calculated from the mean number of cells per field that attached to the coated dish surface in the presence versus absence of compound […].

[2] = target: T2, human P-Selectin-IgG-chimera (Homo sapiens, UniProt P16109); experiment: Flow chamber assay, cell adhesion and rolling under flow conditions, P-selectin; format: cell-based; settings: 125 μM compound; HL-60 cells; flow shear 1 dyne/cm^2; after 5 minutes continuous flow
T2 sequence (P16109 with tags, fused parts or gaps limits assumed): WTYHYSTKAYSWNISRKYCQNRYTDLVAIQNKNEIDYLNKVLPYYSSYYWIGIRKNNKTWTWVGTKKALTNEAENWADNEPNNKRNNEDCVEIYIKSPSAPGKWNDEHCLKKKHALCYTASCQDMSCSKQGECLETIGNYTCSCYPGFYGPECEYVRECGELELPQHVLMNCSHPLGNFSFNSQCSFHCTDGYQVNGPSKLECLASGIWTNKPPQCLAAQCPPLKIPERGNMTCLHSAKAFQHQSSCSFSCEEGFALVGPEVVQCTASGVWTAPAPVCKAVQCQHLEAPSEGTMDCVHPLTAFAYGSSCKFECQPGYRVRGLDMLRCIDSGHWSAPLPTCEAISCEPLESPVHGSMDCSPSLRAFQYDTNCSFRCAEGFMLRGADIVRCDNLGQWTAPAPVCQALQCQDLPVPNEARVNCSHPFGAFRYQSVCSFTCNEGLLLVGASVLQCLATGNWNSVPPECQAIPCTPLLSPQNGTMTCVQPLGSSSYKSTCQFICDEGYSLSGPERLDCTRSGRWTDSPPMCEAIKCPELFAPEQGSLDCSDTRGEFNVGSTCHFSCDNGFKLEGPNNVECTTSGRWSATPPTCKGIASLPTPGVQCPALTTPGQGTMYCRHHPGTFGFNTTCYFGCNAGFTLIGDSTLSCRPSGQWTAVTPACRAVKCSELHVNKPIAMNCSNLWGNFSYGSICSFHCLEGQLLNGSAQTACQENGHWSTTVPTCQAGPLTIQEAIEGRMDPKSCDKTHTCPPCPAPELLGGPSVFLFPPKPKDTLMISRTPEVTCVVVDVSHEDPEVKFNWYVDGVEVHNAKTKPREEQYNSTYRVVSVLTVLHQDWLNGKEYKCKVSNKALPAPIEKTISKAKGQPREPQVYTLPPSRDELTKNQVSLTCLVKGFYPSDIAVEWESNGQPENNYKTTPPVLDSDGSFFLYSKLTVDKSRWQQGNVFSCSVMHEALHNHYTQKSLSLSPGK
Method: as §1, §2, §3, §4

[3] = target: T1, human E-Selectin-IgG-chimera; experiment: Sialyl Lewis x Tyrosine Sulfate Assay (sLex TSA), E-selectin; settings: inhibition of binding of sLex-tyrosine sulfate polyacrylamide ligand complex
Method: (§5) Compounds of the present invention are assayed on a molecular level for their ability to inhibit the binding of P-, L-, or E-selectin chimeric molecules to sLe^x and tyrosinesulfate residues linked to a polymeric matrix as a PSGL-1 substitute. Selected IC50-values are determined.
Microtiter plates are coated overnight in carbonate buffer pH9.6 with goat anti human Fc mAB (10 μg/ml). After washing in assay buffer (25 mM 4-(2-hydroxyethyl)-1-piperazineethanesulfonic acid (HEPES), 150 mM NaCl, 1 mM CaCl2 pH7.4) and blocking (3% bovine serum albumin (BSA) in assay buffer) plates are incubated for 2 h at 37° C. with human P-Selectin-IgG-chimera (0.61 nM respectively 150 ng/mL) or human L-Selectin-IgG-chimera (0.61 nM respectively 89 ng/mL) or human E-Selectin-IgG-chimera (0.61 nM respectively 131 ng/mL). 5 μl of sLe^x-tyrosine sulfate polyacrylamide (1 mg/ml) carrying 15% sLe^x, 10% Tyrosine-sulfate and 5% biotin is complexed with […] Streptavidin-Peroxidase solution (1 mg/ml) and 25 μl assay buffer without CaCl2. For use in the assay, the ligand complex is diluted 1:10000 in assay buffer and further diluted 1:1 with varying amounts of compounds in assay buffer incl. 2% DMSO. […] Bound sLe^x-Tyrosine sulfate ligand complex is determined by measuring optical density at 450 nm vs. 620 nm in a Fusion alpha-FP reader (sold from Packard Bioscience, Dreieich, Germany).

[4] = target: T2, human P-Selectin-IgG-chimera; experiment: Sialyl Lewis x Tyrosine Sulfate Assay (sLex TSA), P-selectin; settings: inhibition of binding of sLex-tyrosine sulfate polyacrylamide ligand complex
Method: as §5
(§6) Microtiter plates are coated overnight in carbonate buffer pH9.6 with goat anti human Fc mAB (10 μg/ml). After washing in assay buffer (25 mM 4-(2-hydroxyethyl)-1-piperazineethanesulfonic acid (HEPES), 150 mM NaCl, 1 mM CaCl2 pH7.4) and blocking (3% bovine serum albumin (BSA) in assay buffer) plates are incubated for 2 h at 37° C. with human P-Selectin-IgG-chimera (0.61 nM respectively 150 ng/mL) or human L-Selectin-IgG-chimera (0.61 nM respectively 89 ng/mL) or human E-Selectin-IgG-chimera (0.61 nM respectively 131 ng/mL). 5 μl of sLe^x-tyrosine sulfate polyacrylamide (1 mg/ml) carrying 15% sLe^x, 10% Tyrosine-sulfate and 5% biotin is complexed with […] Streptavidin-Peroxidase solution (1 mg/ml) and 25 μl assay buffer without CaCl2. For use in the assay, the ligand complex is diluted 1:10000 in assay buffer and further diluted 1:1 with varying amounts of compounds in assay buffer incl. 2% DMSO. This mixture is added to the wells precoated with E- or P-selectin. After incubation for 2 h at 37° C., wells are washed for six times with in assay buffer incl. 0.005% Polyoxyethylenesorbitan monolaurate (TWEEN 20), developed for 10-15 min with 20 μl 3,3′,5,5′-tetramethylbenzidine (TMB)/H2O2 substrate solution and stopped with 20 μl 1M H2SO4. Bound sLe^x-Tyrosine sulfate ligand complex is determined by measuring optical density at 450 nm vs. 620 nm in a Fusion alpha-FP reader (sold from Packard Bioscience, Dreieich, Germany).

[5] = target: human L-Selectin-IgG-chimera (Homo sapiens, UniProt P14151); experiment: Sialyl Lewis x Tyrosine Sulfate Assay (sLex TSA), L-selectin; settings: inhibition of binding of sLex-tyrosine sulfate polyacrylamide ligand complex
human L-Selectin-IgG-chimera, sequence (P14151 with tags, fused parts or gaps limits assumed): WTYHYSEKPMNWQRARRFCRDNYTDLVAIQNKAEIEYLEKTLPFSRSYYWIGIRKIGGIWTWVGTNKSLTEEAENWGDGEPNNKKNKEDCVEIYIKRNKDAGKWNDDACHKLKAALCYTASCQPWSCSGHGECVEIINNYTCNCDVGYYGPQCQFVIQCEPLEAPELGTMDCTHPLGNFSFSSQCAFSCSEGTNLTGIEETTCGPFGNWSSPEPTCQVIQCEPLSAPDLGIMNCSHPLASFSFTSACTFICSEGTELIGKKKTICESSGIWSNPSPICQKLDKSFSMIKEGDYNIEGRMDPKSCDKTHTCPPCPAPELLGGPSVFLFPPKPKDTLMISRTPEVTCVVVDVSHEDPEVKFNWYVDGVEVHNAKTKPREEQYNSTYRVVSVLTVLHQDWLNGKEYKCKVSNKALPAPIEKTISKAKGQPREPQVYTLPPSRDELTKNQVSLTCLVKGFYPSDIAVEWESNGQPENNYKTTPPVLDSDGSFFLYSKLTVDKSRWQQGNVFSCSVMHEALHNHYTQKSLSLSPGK
Method: as §5, §6

SMILES	E-Selectin normalized ratio of %-inhibition of compound divided by %-inhibition of bimosiamose [1]	P-Selectin normalized ratio of %-inhibition of compound divided by %-inhibition of bimosiamose [2] [Ratio]	pIC50 [3]	pIC50 [4]	pIC50 [5]
O=C(O)Cc1ccc(-c2ccccc2NC(=O)Cc2cc(O)c(O)cc2[N+](=O)[O-])s1 [Compound 110, (5-{2-[2-(4,5-Dihydroxy-2-nitro-phenyl)-acetylamino]-phenyl}-thiophen-2-yl)-acetic acid]	1.00 Ratio	1.26			
Cc1oc(-c2ccc(NC(=O)c3cccc(-c4cc(O)c(O)cc4[N+](=O)[O-])c3)cc2)cc1C(=O)O [Compound 113, 2-Methyl-5-{4-[(2′-nitro-4′,5′-dihydroxy-biphenyl-3-carbonyl)-amino]-phenyl}-furan-3-carboxylic acid]	1.37 Ratio	1.30			
O=C(O)Cc1ccc(-c2ccccc2NC(=O)c2cccc(-c3cc([N+](=O)[O-])cc(O)c3O)c2)s1 [Compound 116, (5-{2-[(2′,3′-Dihydroxy-5′-nitro-biphenyl-3-carbonyl)-amino]-phenyl}-thiophen-2-yl)-acetic acid]	1.23 Ratio	1.32	3.51	5.28	5.06
O=C(Nc1ccccc1)c1cccc(-c2cc(O)c(O)cc2[N+](=O)[O-])c1 [Compound 117, 4′,5′-Dihydroxy-2′-nitro-biphenyl-3-carboxylic acid phenylamide]	n.s.	0.83			
O=C(O)Cc1ccc(-c2ccccc2NC(=O)c2cccc(-c3cc(O)c(O)cc3[N+](=O)[O-])c2)s1 [Compound 118, (5-{2-[(4′,5′-Dihydroxy-2′-nitro-biphenyl-3-carbonyl)-amino]-phenyl}-thiophen-2-yl)-acetic acid]	0.84 Ratio	1.19		4.72	4.41
O=C(Nc1ccccc1-c1ccc(C(=O)O)s1)c1cccc(-c2cc(O)c(O)cc2[N+](=O)[O-])c1 [Compound 119, 5-{2-[(4′,5′-Dihydroxy-2′-nitro-biphenyl-3-carbonyl)-amino]-phenyl}-thiophene-2-carboxylic acid]	0.86 Ratio	1.67	3.57	4.96	4.77
O=C(Nc1ccccc1-c1ccc(C(=O)O)s1)c1cccc(-c2cc([N+](=O)[O-])cc(O)c2O)c1 [Compound 120, 5-{2-[(2′-3′-Dihydroxy-5′-nitro-biphenyl-3-carbonyl)-amino]-phenyl}-thiophene-2-carboxylic acid]	1.01 Ratio	1.72		5.34	5.18
O=C(O)Cc1ccc(-c2ccccc2NC(=O)Cc2cc(O)c(O)c([N+](=O)[O-])c2)s1 [Compound 121, (5-{2-[2-(3,4-Dihydroxy-5-nitro-phenyl)-acetylamino]-phenyl}-thiophen-2-yl)-acetic acid]	0.98 Ratio	0.89			
